The source of these data is patent US7790721B2, “Pyrroloquinoxalinone inhibitors of poly(ADP-ribose)polymerase” (Abbott Laboratories, priority 2006, dated 2010).

Structures are written as SMILES. Like-named read-outs stand apart in the source and are kept apart here.

The target in one test is T1, PARP-1 (Homo sapiens, UniProt P09874).
T1 construct: purchased Trevigen (Gaithersburg, Md.); host or cells: E. coli
Put plainly: PARP1 assay (inhibition of PARP, [3H]-NAD+ / biotinylated histone H1, FlashPlate scintillation). The test is classed as biochemical.

For a further test, the target named is T2, PARP in C41 cells (Homo sapiens, UniProt P09874).
T2 construct: endogenous in cells; host or cells: C41 cells
Put plainly: Cellular PARP assay (PAR formation after H2O2 DNA damage, anti-PAR immunofluorescence). It is filed as cell-based. Conditions: compound 30 minutes, then 1 mM H2O2 for 10 minutes, FITC signal normalized with DAPI, read-out: Cell, EC50.

Setting [1] is: recombinant human PARP, 1 nM enzyme, 1.5 μM [3H]-NAD+, inhibition curves at various substrate concentrations, read-out: PARP-1 (Ki).

T2 sequence (P09874 whole entry): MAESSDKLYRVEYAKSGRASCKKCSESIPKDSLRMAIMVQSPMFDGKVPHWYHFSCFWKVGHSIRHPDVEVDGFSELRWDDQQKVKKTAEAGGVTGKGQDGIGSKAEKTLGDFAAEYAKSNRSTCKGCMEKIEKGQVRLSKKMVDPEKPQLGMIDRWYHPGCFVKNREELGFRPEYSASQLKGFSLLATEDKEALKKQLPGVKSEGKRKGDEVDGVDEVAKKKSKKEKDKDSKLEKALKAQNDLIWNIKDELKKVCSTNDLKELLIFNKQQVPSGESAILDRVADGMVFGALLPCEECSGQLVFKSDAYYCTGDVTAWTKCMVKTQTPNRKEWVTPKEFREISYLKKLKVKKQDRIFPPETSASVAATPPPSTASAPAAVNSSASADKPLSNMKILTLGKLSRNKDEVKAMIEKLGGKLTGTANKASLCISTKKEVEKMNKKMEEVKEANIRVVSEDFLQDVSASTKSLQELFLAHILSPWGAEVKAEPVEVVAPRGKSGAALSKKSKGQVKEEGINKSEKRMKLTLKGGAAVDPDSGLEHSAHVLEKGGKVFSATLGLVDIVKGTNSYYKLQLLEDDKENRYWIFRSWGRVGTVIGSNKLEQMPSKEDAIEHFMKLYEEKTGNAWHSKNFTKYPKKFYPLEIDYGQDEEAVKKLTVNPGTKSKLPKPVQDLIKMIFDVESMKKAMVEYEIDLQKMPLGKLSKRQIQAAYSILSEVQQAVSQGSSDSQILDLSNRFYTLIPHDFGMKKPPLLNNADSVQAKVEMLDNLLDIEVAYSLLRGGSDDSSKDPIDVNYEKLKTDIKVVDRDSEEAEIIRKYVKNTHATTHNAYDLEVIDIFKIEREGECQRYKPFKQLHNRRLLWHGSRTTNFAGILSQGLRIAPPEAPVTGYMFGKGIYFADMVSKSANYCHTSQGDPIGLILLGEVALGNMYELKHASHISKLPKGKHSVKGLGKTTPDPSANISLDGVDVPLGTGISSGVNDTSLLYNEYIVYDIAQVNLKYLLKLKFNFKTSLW
T1 sequence (P09874 whole entry): as above
Experimental for PARP in C41 cells: C41 cells were treated with a compound of this invention for 30 minutes in 96 well plate. PARP was then activated by damaging DNA with 1 mM H2O2 for 10 minutes. The cells were then washed with ice-cold PBS once and fixed with pre-chilled methanol:acetone (7:3) at −20° C. for 10 minutes. After air-drying, the plates were rehydrated with PBS and blocked 5% non-fat dry milk in PBS-TWEEN20® (Sigma, St. Louis, Mo.) (0.05%) (blocking solution) for 30 minutes at room temperature. The cells were incubated with anti-PAR antibody 10H (1:50) in Blocking solution at 37° C. for 60 minutes followed by washing with PBS-TWEEN20® 5 times, and incubation with goat anti-mouse fluorescein 5(6)-isothiocyanate-coupled antibody (1:50) and 1 μg/ml 4′,6-diamidino-2-phenylindole (DAPI) in blocking solution at 37° C. for 60 minutes. […] The PARP activity (FITC signal) was normalized with cell numbers (DAPI).
Experimental for PARP-1: Nicotinamide[2,5′,8-3H]adenine dinucleotide and strepavidin SPA beads were purchased from Amersham Biosiences (Buckinghamshire, U.K.). […] NAD^+, histone, aminobenzamide, 3-amino benzamide and Calf Thymus DNA (dcDNA) were purchased from Sigma (St. Louis, Mo.). […] Biotinylated histone H1 was prepared by treating the protein with Sulfo-NHS-LC-Biotin from Pierce (Rockford, Ill.). The biotinylation reaction was conducted by slowly and intermittently adding 3 equivalents of 10 mM Sulfo-NHS-LC-Biotin to 100 μM Histone H1 in phosphate-buffered saline, pH 7.5, at 4° C. with gentle vortexing over 1 minute followed by subsequent 4° C. incubation for 1 hour. Streptavidin coated (FLASHPLATE PLUS®) microplates were purchased from Perkin Elmer (Waltham, Mass.).
PARP1 assay was conducted in PARP assay buffer containing 50 mM Tris pH 8.0, 1 mM DTT, 4 mM MgCl2. […] Auto reactions utilizing SPA bead-based detection were carried out in 100 μL volumes in white 96 well plates. Reactions were initiated by adding 50 μl of 2× NAD^+ substrate mixture to 50 μL of 2× enzyme mixture containing PARP and DNA. […] 170 μL of the stopped reaction mixtures were transferred to streptavidin FLASHPLATE PLUS®, incubated for 1 hour, and counted using a TOPCOUNT® microplate scintillation counter from Perkin Elmer (Waltham, Mass.).

`O=c1[nH]c2cc(CN3CCCC3)ccc2n2cccc12` [Example 7, 7-(pyrrolidin-1-ylmethyl)pyrrolo[1,2-a]quinoxalin-4(5H)-one] displayed a Ki on PARP-1 of 6 nM. The EC50 on PARP in C41 cells was 5.4 nM.
For `O=c1[nH]c2ccc(CNC3CC3)cc2n2cccc12` [Example 12, 8-((cyclopropylamino)methyl)pyrrolo[1,2-a]quinoxalin-4(5H)-one] the same measures were 32 nM and 13 nM.
Turning to `CC(C)NCc1ccc2[nH]c(=O)c3cccn3c2c1` [Example 13, 8-((isopropylamino)methyl)pyrrolo[1,2-a]quinoxalin-4(5H)-one], the inhibitory constant (Ki) at PARP-1 (setting [1]) came to 44 nM. In addition, at PARP in C41 cells, the EC50 came out at 37 nM.
On PARP-1, `CN(C)Cc1ccc2c(c1)NC(=O)C1CCCN21` (centres unmarked) [Example 44, 7-[(dimethylamino)methyl]-1,2,3,3a-tetrahydropyrrolo[1,2-a]quinoxalin-4(5H)-one] gave a Ki of 60 nM. Besides, the EC50 on PARP in C41 cells was found to be 143 nM.
Consider `O=C1NCc2cc(CN3CCCCC3)ccc2-n2cccc21` [Example 57, 8-(piperidin-1-ylmethyl)-5,6-dihydro-4H-pyrrolo[1,2-a][1,4]benzodiazepin4-one], for which, on PARP-1 (setting [1]), the Ki was 1140 nM.
As for `O=C1NCc2cc(CNC3CCCCC3)ccc2-n2cccc21` [Example 58, 8-[(cyclohexylamino)methyl]-5,6-dihydro-4H-pyrrolo[1,2-a][1,4]benzodiazepin4-one], the Ki at PARP-1 (setting [1]) came to 1440 nM.
`COC(=O)CNCc1ccc2c(c1)[nH]c(=O)c1cccn12` [Example 59, Methyl N-[(4-oxo4,5-dihydropyrrolo[1,2-a]quinoxalin-7-yl)methyl]glycinate]: the Ki on PARP-1 (setting [1]) was determined as 534 nM.
On the same count and under the same terms, for `O=C(O)CNCc1ccc2c(c1)[nH]c(=O)c1cccn12` [Example 60, N-[(4-oxo-4,5-dihydropyrrolo[1,2-a]quinoxalin-7-yl)methyl]glycine] the value was 318 nM.
On the same count and under the same terms, with `O=C(NCCCN1CCOCC1)c1ccc2c(c1)[nH]c(=O)c1cccn12` [Example 63, N-(3-morpholin-4-ylpropyl)-4-oxo-4,5-dihydropyrrolo[1,2-a]quinoxaline-7-carboxamide] the figure was 211 nM.
`O=C(NCC(=O)N1CCOCC1)c1ccc2c(c1)[nH]c(=O)c1cccn12` [Example 64, N-(2-morpholino-2-oxoethyl)-4-oxo-4,5-dihydropyrrolo[1,2-a]quinoxaline-7-carboxamide]: the Ki at PARP-1 (setting [1]) came out at 369 nM.
The same measure, in the same setting: with `CN(C)CCNCc1ccc2c(c1)[nH]c(=O)c1cccn12` [Example 65, 7-({[2-(dimethylamino)ethyl]amino}methyl)pyrrolo[1,2-a]quinoxalin-4(5H)-one] the figure was 427 nM.
For `CN1CCN(CCCNC(=O)c2ccc3c(c2)[nH]c(=O)c2cccn23)CC1` [Example 66, N-[3-(4-methylpiperazin-1-yl)propyl]-4-oxo4,5-dihydropyrrolo[1,2-a]quinoxaline-7-carboxamide], at PARP-1 (setting [1]), the Ki came out at 23 nM. Also, the EC50 at PARP in C41 cells was determined as 32 nM.
Turning to `CN(C)CCNC(=O)c1ccc2c(c1)[nH]c(=O)c1cccn12` [Example 68, N-[2-(dimethylamino)ethyl]-4-oxo-4,5-dihydropyrrolo[1,2-a]quinoxaline-7-carboxamide], the Ki on PARP-1 (setting [1]) was 1630 nM.
The same measure, in the same setting: with `O=c1[nH]c2cc(CNCCCN3CCCCC3)ccc2n2cccc12` [Example 69, 7-{[(3-piperidin-1-ylpropyl)amino]methyl}pyrrolo[1,2-a]quinoxalin-4(5H)-one] the figure was 129 nM.
Same read-out and setting: for `O=C(NCCCN1CCCCC1)c1ccc2c(c1)[nH]c(=O)c1cccn12` [Example 70, 4-oxo-N-(3-piperidin-1-ylpropyl)-4,5-dihydropyrrolo[1,2-a]quinoxaline-7-carboxamide] the value was 139 nM.
Take `O=c1[nH]c2cc(CNCCN3CCCCC3)ccc2n2cccc12` [Example 71, 7-{[(2-piperidin-1-ylethyl)amino]methyl}pyrrolo[1,2-a]quinoxalin-4(5H)-one]: the Ki at PARP-1 (setting [1]) was found to be 182 nM.
Still for that read-out and setting: with `CN(C)C1CCC(NCc2ccc3c(c2)[nH]c(=O)c2cccn23)CC1` (centres unmarked) [Example 72, 7-({[4-(dimethylamino)cyclohexyl]amino}methyl)pyrrolo[1,2-a]quinoxalin-4(5H)-one] the figure was 163 nM; with `O=C(NCC(=O)N1CCCC1)c1ccc2c(c1)[nH]c(=O)c1cccn12` [Example 73, 4-oxo-N-(2-oxo-2-(pyrrolidin-1-yl)ethyl)-4,5-dihydropyrrolo[1,2-a]quinoxaline-7-carboxamide], 874 nM; with `CN(C)C1CCC(NC(=O)c2ccc3c(c2)[nH]c(=O)c2cccn23)CC1` (centres unmarked) [Example 74, N-[4-(dimethylamino)cyclohexyl]-4-oxo4,5-dihydropyrrolo[1,2-a]quinoxaline-7-carboxamide], 776 nM.
With `O=C(Nc1cccc(S(=O)(=O)N2CCCCC2)c1)c1ccc2c(c1)[nH]c(=O)c1cccn12` [Example 75, 4-oxo-N-[3-(piperidin-1-ylsulfonyl)phenyl]4,5-dihydropyrrolo[1,2-a]quinoxaline-7-carboxamide], the Ki at PARP-1 (setting [1]) stood at 1640 nM.
In the case of `O=C(CNCc1ccc2c(c1)[nH]c(=O)c1cccn12)N1CCCC1` [Example 76, 7-((2-oxo-2-(pyrrolidin-1-yl)ethylamino)methyl)pyrrolo[1,2-a]quinoxalin-4(5H)-one], the Ki at PARP-1 (setting [1]) is 149 nM.
In the case of `O=C(NCCN1CCSCC1)c1ccc2c(c1)[nH]c(=O)c1cccn12` [Example 78, 4-oxo-N-(2-thiomorpholin-4-ylethyl)-4,5-dihydropyrrolo[1,2-a]quinoxaline-7-carboxamide], the Ki at PARP-1 (setting [1]) stood at 86 nM.
Consider `CN(C)C(=O)c1ccc2c(c1)[nH]c(=O)c1cccn12` [Example 79, N,N-dimethyl-4-oxo-4,5-dihydropyrrolo[1,2-a]quinoxaline-7-carboxamide], for which the Ki on PARP-1 (setting [1]) worked out at 615 nM.
Turning to `CCN1CCCC(NC(=O)c2ccc3c(c2)[nH]c(=O)c2cccn23)C1` (centres unmarked) [Example 80, N-(1-ethylpiperidin-3-yl)4-oxo-4,5-dihydropyrrolo[1,2-a]quinoxaline-7carboxamide], the Ki at PARP-1 (setting [1]) was 113 nM.
`O=C(NCCCCc1ccccc1)c1ccc2c(c1)[nH]c(=O)c1cccn12` [Example 81, 4-oxo-N-(4-phenylbutyl)-4,5-dihydropyrrolo[1,2-a]quinoxaline-7-carboxamide]: at PARP-1 (setting [1]), the Ki came to 94 nM.
Still for that read-out and setting: for `O=C(Nc1ccc(N2CCN(Cc3ccccc3)CC2)cc1)c1ccc2c(c1)[nH]c(=O)c1cccn12` [Example 83, N-[4-(4-benzylpiperazin-1-yl)phenyl]-4-oxo4,5-dihydropyrrolo[1,2-a]quinoxaline-7-carboxamide] the value was 58 nM.
Same read-out and setting: with `O=C(Nc1nccs1)c1ccc2c(c1)[nH]c(=O)c1cccn12` [Example 84, 4-oxo-N-1,3-thiazol-2-yl-4,5-dihydropyrrolo[1,2-a]quinoxaline-7-carboxamide] the figure was 98 nM.
On to `O=C(c1ccc2c(c1)[nH]c(=O)c1cccn12)N1CCCCC1` [Example 85, 7-(piperidin-1-ylcarbonyl)pyrrolo[1,2-a]quinoxalin-4(5H)-one], for which the Ki at PARP-1 (setting [1]) was found to be 16 nM. The EC50 on PARP in C41 cells came to 23 nM.
Taken in the same sequence, the figures for `NC1CCN(Cc2ccc3c(c2)[nH]c(=O)c2cccn23)CC1` [Example 86, 7-[(4-aminopiperidin-1-yl)methyl]pyrrolo[1,2-a]quinoxalin-4(5H)-one] were 35 nM and 204 nM.
Regarding `NC1CCN(C(=O)c2ccc3c(c2)[nH]c(=O)c2cccn23)CC1` [Example 87, 7-[(4-aminopiperidin-1-yl)carbonyl]pyrrolo[1,2-a]quinoxalin-4(5H)-one], the Ki at PARP-1 (setting [1]) was determined as 77 nM.
On the same count and under the same terms, with `O=C(c1ccc2c(c1)[nH]c(=O)c1cccn12)N1CCCNCC1` [Example 88, 7-(1,4-diazepan-1-ylcarbonyl)pyrrolo[1,2-a]quinoxalin-4(5H)-one] the figure was 8690 nM.

For orientation: Ki means a dissociation constant, usually derived from enzyme kinetics or from competition with a known ligand. For orientation: EC50 means the concentration that produces a half-maximal response.
